Experimental data reported in the NIST ThermoML archive (doi:10.1021/je060271a).
“And” between values parts separate entries of the source, which are not always exact repeats. Identical values can stand only once.

Conditions: 283.15 K, Liquid, Vibrating tube method

CCCCCC(=O)OCC(COC(=O)CCCCC)(COC(=O)CCCCC)COC(=O)CCCCC [pentaerythritol tetrahexanoate]
Conditions	mass density
9284.9 kPa	1009.6 kg/m3
9306.2 kPa	1009.5 kg/m3
9324.2 kPa	1009.5 kg/m3
9341.7 kPa	1009.5 kg/m3
9359.5 kPa	1009.5 kg/m3
9380.7 kPa	1009.4 kg/m3
9398.1 kPa	1009.6 kg/m3
9416 kPa	1009.6 kg/m3
9436.7 kPa	1009.6 kg/m3
9454.6 kPa	1009.6 kg/m3
9473 kPa	1009.6 kg/m3
9490.6 kPa	1009.6 kg/m3
9508.2 kPa	1009.7 kg/m3
9529 kPa	1009.7 kg/m3
9546.3 kPa	1009.7 kg/m3
9563.7 kPa	1009.7 kg/m3
9585 kPa	1009.7 kg/m3
9602.4 kPa	1009.6 kg/m3
9623.6 kPa	1009.7 kg/m3
9642.2 kPa	1009.7 kg/m3
9660.2 kPa	1009.7 kg/m3
9681 kPa	1009.8 kg/m3
9690.2 kPa	1009.7 kg/m3
9690.5 kPa	1009.7 kg/m3
9691 kPa	1009.8 kg/m3
9691.2 kPa	1009.9 kg/m3
9691.4 kPa	1009.8 kg/m3
9691.5 kPa	1009.7 kg/m3
9691.6 kPa	1009.8 kg/m3
9691.9 kPa	1009.7 kg/m3
9692 kPa	1009.8 kg/m3
9692.1 kPa	1009.6 kg/m3
9692.4 kPa	1009.7 kg/m3
9692.6 kPa	1009.8 kg/m3
9692.8 kPa	1009.7 kg/m3
9693.3 kPa	1009.8 kg/m3
9693.4 kPa	1009.8 kg/m3
9693.8 kPa	1009.8 kg/m3
9693.9 kPa	1009.8 kg/m3
9694.3 kPa	1009.8 kg/m3
9694.5 kPa	1009.8 kg/m3
9695 kPa	1009.8 kg/m3
9695.1 kPa	1009.9 kg/m3
9695.3 kPa	1009.9 kg/m3
9695.7 kPa	1009.7 kg/m3 and 1009.8 kg/m3
9695.8 kPa	1009.9 kg/m3
9696.2 kPa	1009.8 kg/m3
9696.4 kPa	1009.8 kg/m3
9696.5 kPa	1009.8 kg/m3
9696.7 kPa	1009.8 kg/m3
9696.9 kPa	1009.8 kg/m3
9697.2 kPa	1009.8 kg/m3
9697.6 kPa	1009.8 kg/m3
9698.1 kPa	1009.5 kg/m3 and 1009.8 kg/m3
9698.2 kPa	1009.8 kg/m3
9698.3 kPa	1009.9 kg/m3
9698.9 kPa	1009.7 kg/m3
9699 kPa	1009.7 kg/m3
9699.1 kPa	1009.7 kg/m3
9699.3 kPa	1009.7 kg/m3
9699.6 kPa	1009.7 kg/m3
9699.8 kPa	1009.7 kg/m3 and 1009.9 kg/m3
9700 kPa	1009.8 kg/m3 and 1009.6 kg/m3
9700.1 kPa	1009.8 kg/m3 and 1009.7 kg/m3
9700.3 kPa	1009.7 kg/m3 and 1009.8 kg/m3
9700.7 kPa	1009.7 kg/m3
9700.8 kPa	1009.7 kg/m3
9701 kPa	1009.7 kg/m3
9701.5 kPa	1009.8 kg/m3 and 1009.7 kg/m3
9701.7 kPa	1009.8 kg/m3
9754.8 kPa	1009.8 kg/m3
9769.2 kPa	1009.7 kg/m3
9783.6 kPa	1009.8 kg/m3
9797.3 kPa	1009.7 kg/m3
9814.5 kPa	1009.7 kg/m3
9828.7 kPa	1009.8 kg/m3
9845.7 kPa	1009.7 kg/m3
9859.7 kPa	1009.8 kg/m3
9874.3 kPa	1009.8 kg/m3
9888.8 kPa	1009.8 kg/m3
9905.8 kPa	1009.8 kg/m3
9919.9 kPa	1009.9 kg/m3
9934.6 kPa	1009.9 kg/m3
9951.8 kPa	1009.9 kg/m3
9966.6 kPa	1009.9 kg/m3
9984 kPa	1009.8 kg/m3
9998.7 kPa	1009.8 kg/m3
10013 kPa	1009.9 kg/m3
10027 kPa	1010 kg/m3
10045 kPa	1009.8 kg/m3
10060 kPa	1009.9 kg/m3
10074 kPa	1009.9 kg/m3
10091 kPa	1010 kg/m3
10106 kPa	1010 kg/m3
10120 kPa	1009.9 kg/m3
10135 kPa	1009.9 kg/m3
10152 kPa	1010 kg/m3
10166 kPa	1010 kg/m3
10181 kPa	1010 kg/m3
10195 kPa	1010 kg/m3
10212 kPa	1010.1 kg/m3
10226 kPa	1010.1 kg/m3
10244 kPa	1010 kg/m3
10258 kPa	1010 kg/m3
10273 kPa	1010 kg/m3
10288 kPa	1009.9 kg/m3
10305 kPa	1010.1 kg/m3
10320 kPa	1010 kg/m3
10334 kPa	1010.1 kg/m3
10352 kPa	1010.1 kg/m3
10367 kPa	1010.2 kg/m3
10382 kPa	1010.1 kg/m3
10400 kPa	1010.1 kg/m3
10415 kPa	1010.2 kg/m3
10430 kPa	1010.1 kg/m3
10445 kPa	1010.1 kg/m3
10463 kPa	1010.2 kg/m3
10478 kPa	1010.2 kg/m3
10496 kPa	1010.1 kg/m3
10511 kPa	1010.2 kg/m3
10526 kPa	1010.1 kg/m3
10541 kPa	1010.3 kg/m3
10559 kPa	1010.2 kg/m3
10575 kPa	1010.3 kg/m3
10590 kPa	1010.2 kg/m3
10608 kPa	1010.2 kg/m3
10622 kPa	1010.3 kg/m3
10638 kPa	1010.2 kg/m3
10656 kPa	1010.3 kg/m3
10671 kPa	1010.4 kg/m3
10686 kPa	1010.3 kg/m3
10704 kPa	1010.4 kg/m3
10719 kPa	1010.2 kg/m3
10733 kPa	1010.3 kg/m3
10749 kPa	1010.2 kg/m3
10766 kPa	1010.3 kg/m3
10780 kPa	1010.3 kg/m3
10798 kPa	1010.3 kg/m3
10812 kPa	1010.4 kg/m3
10826 kPa	1010.4 kg/m3
10840 kPa	1010.4 kg/m3
10858 kPa	1010.4 kg/m3
10872 kPa	1010.3 kg/m3
10887 kPa	1010.4 kg/m3
10904 kPa	1010.4 kg/m3
